{"source": "the supplement of paper PMC10307832", "assay_in_all_cases": "relative viability (nuclei count vs DMSO), 5 days (fraction); higher = more cells survive", "key": {"NCI-H1651": {"test_system": "NCI-H1651", "procedure,_shortened": "(§1)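 Nuclei were stained with Hoechst during a one-step fixation (final 0.05% Triton X-100, 1% formaldehyde, 1 ug/ml Hoechst) carried out 5 days after dosing, then counted on 4× images. The cells, lung cancer lines in 1536-well plates, had been dosed by pin tool the day after seeding with one drug alone or a fixed anchor-drug dose plus five library-drug doses (not always all listed) in √10 steps. Relative viability is the nuclei count in treated wells divided by that in vehicle wells, and each value is the median of duplicate plates.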"}, "LC-2-ad": {"test_system": "LC-2-ad", "procedure,_shortened": "as §1"}, "NCI-H650": {"test_system": "NCI-H650", "procedure,_shortened": "as §1"}, "HARA": {"test_system": "HARA", "procedure,_shortened": "as §1"}, "NCI-H358": {"test_system": "NCI-H358", "procedure,_shortened": "as §1"}, "COR-L23": {"test_system": "COR-L23", "procedure,_shortened": "as §1"}, "UMC-11": {"test_system": "UMC-11", "procedure,_shortened": "as §1"}, "NCI-H838": {"test_system": "NCI-H838", "procedure,_shortened": "as §1"}, "SW 1573": {"test_system": "SW 1573", "procedure,_shortened": "as §1"}, "NCI-H1993": {"test_system": "NCI-H1993", "procedure,_shortened": "as §1"}, "NCI-H2085": {"test_system": "NCI-H2085", "procedure,_shortened": "as §1"}, "ABC-1": {"test_system": "ABC-1", "procedure,_shortened": "as §1"}, "NCI-H2009": {"test_system": "NCI-H2009", "procedure,_shortened": "as §1"}, "NCI-H2347": {"test_system": "NCI-H2347", "procedure,_shortened": "as §1"}, "HCC-15": {"test_system": "HCC-15", "procedure,_shortened": "as §1"}, "PC-14": {"test_system": "PC-14", "procedure,_shortened": "as §1"}, "NCI-H2126": {"test_system": "NCI-H2126", "procedure,_shortened": "as §1"}, "LU99A": {"test_system": "LU99A", "procedure,_shortened": "as §1"}, "NCI-H2342": {"test_system": "NCI-H2342", "procedure,_shortened": "as §1"}, "EPLC-272H": {"test_system": "EPLC-272H", "procedure,_shortened": "as §1"}, "NCI-H522": {"test_system": "NCI-H522", "procedure,_shortened": "as §1"}, "NCI-H460": {"test_system": "NCI-H460", "procedure,_shortened": "as §1"}, "NCI-H1915": {"test_system": "NCI-H1915", "procedure,_shortened": "as §1"}}}
{"compound": "CC(C)Oc1cc(Nc2nc(N[C@@H](C)c3ccc(F)cn3)ncc2Cl)n[nH]1", "note": "[AZ23] + CCNC(=O)c1noc(-c2cc(C(C)C)c(O)cc2O)c1-c1ccc(CN2CCOCC2)cc1 [Luminespib] (partner 0.01 µM)", "values": [{"measurement": "relative viability", "setting": "NCI-H1651; first compound 0.03162 µM", "value": 0.753}, {"measurement": "relative viability", "setting": "NCI-H1651; first compound 0.3162 µM", "value": 0.672}, {"measurement": "relative viability", "setting": "LC-2-ad; first compound 0.01 µM", "value": 1.26}, {"measurement": "relative viability", "setting": "LC-2-ad; first compound 0.03162 µM", "value": 0.965}, {"measurement": "relative viability", "setting": "LC-2-ad; first compound 0.3162 µM", "value": 0.93}, {"measurement": "relative viability", "setting": "NCI-H650; first compound 0.01 µM", "value": 0.665}, {"measurement": "relative viability", "setting": "NCI-H650; first compound 0.03162 µM", "value": 0.854}, {"measurement": "relative viability", "setting": "NCI-H650; first compound 0.3162 µM", "value": 0.765}, {"measurement": "relative viability", "setting": "HARA; first compound 0.03162 µM", "value": 0.822}, {"measurement": "relative viability", "setting": "HARA; first compound 0.3162 µM", "value": 1.34}, {"measurement": "relative viability", "setting": "NCI-H358; first compound 0.01 µM", "value": 0.416}, {"measurement": "relative viability", "setting": "NCI-H358; first compound 0.03162 µM", "value": 0.395}, {"measurement": "relative viability", "setting": "NCI-H358; first compound 0.3162 µM", "value": 0.349}, {"measurement": "relative viability", "setting": "COR-L23; first compound 0.01 µM", "value": 0.405}, {"measurement": "relative viability", "setting": "COR-L23; first compound 0.03162 µM", "value": 0.814}, {"measurement": "relative viability", "setting": "COR-L23; first compound 0.3162 µM", "value": 0.869}, {"measurement": "relative viability", "setting": "UMC-11; first compound 0.01 µM", "value": 1.15}, {"measurement": "relative viability", "setting": "UMC-11; first compound 0.03162 µM", "value": 1.05}, {"measurement": "relative viability", "setting": "UMC-11; first compound 0.3162 µM", "value": 0.988}, {"measurement": "relative viability", "setting": "NCI-H838; first compound 0.01 µM", "value": 0.229}, {"measurement": "relative viability", "setting": "NCI-H838; first compound 0.03162 µM", "value": 0.278}, {"measurement": "relative viability", "setting": "NCI-H838; first compound 0.3162 µM", "value": 0.345}, {"measurement": "relative viability", "setting": "SW 1573; first compound 0.01 µM", "value": 0.189}, {"measurement": "relative viability", "setting": "SW 1573; first compound 0.03162 µM", "value": 0.164}, {"measurement": "relative viability", "setting": "SW 1573; first compound 0.3162 µM", "value": 0.227}, {"measurement": "relative viability", "setting": "NCI-H1993; first compound 0.01 µM", "value": 0.785}, {"measurement": "relative viability", "setting": "NCI-H1993; first compound 0.03162 µM", "value": 0.881}, {"measurement": "relative viability", "setting": "NCI-H1993; first compound 0.3162 µM", "value": 0.854}, {"measurement": "relative viability", "setting": "NCI-H2085; first compound 0.01 µM", "value": 0.321}, {"measurement": "relative viability", "setting": "NCI-H2085; first compound 0.03162 µM", "value": 0.422}, {"measurement": "relative viability", "setting": "NCI-H2085; first compound 0.3162 µM", "value": 0.463}, {"measurement": "relative viability", "setting": "ABC-1; first compound 0.03162 µM", "value": 0.707}, {"measurement": "relative viability", "setting": "ABC-1; first compound 0.3162 µM", "value": 0.624}, {"measurement": "relative viability", "setting": "NCI-H2009; first compound 0.01 µM", "value": 1.05}, {"measurement": "relative viability", "setting": "NCI-H2009; first compound 0.03162 µM", "value": 1.17}, {"measurement": "relative viability", "setting": "NCI-H2009; first compound 0.3162 µM", "value": 1.1}, {"measurement": "relative viability", "setting": "NCI-H2347; first compound 0.01 µM", "value": 0.486}, {"measurement": "relative viability", "setting": "NCI-H2347; first compound 0.03162 µM", "value": 0.62}, {"measurement": "relative viability", "setting": "NCI-H2347; first compound 0.3162 µM", "value": 0.41}, {"measurement": "relative viability", "setting": "HCC-15; first compound 0.01 µM", "value": 0.435}, {"measurement": "relative viability", "setting": "HCC-15; first compound 0.03162 µM", "value": 0.243}, {"measurement": "relative viability", "setting": "HCC-15; first compound 0.3162 µM", "value": 0.338}, {"measurement": "relative viability", "setting": "PC-14; first compound 0.03162 µM", "value": 0.21}, {"measurement": "relative viability", "setting": "PC-14; first compound 0.3162 µM", "value": 0.21}, {"measurement": "relative viability", "setting": "NCI-H2126; first compound 0.01 µM", "value": 0.954}, {"measurement": "relative viability", "setting": "NCI-H2126; first compound 0.03162 µM", "value": 1}, {"measurement": "relative viability", "setting": "NCI-H2126; first compound 0.3162 µM", "value": 0.875}, {"measurement": "relative viability", "setting": "LU99A; first compound 0.01 µM", "value": 0.217}, {"measurement": "relative viability", "setting": "LU99A; first compound 0.03162 µM", "value": 0.188}, {"measurement": "relative viability", "setting": "LU99A; first compound 0.3162 µM", "value": 0.298}, {"measurement": "relative viability", "setting": "NCI-H2342; first compound 0.01 µM", "value": 0.658}, {"measurement": "relative viability", "setting": "NCI-H2342; first compound 0.03162 µM", "value": 0.679}, {"measurement": "relative viability", "setting": "NCI-H2342; first compound 0.3162 µM", "value": 0.718}, {"measurement": "relative viability", "setting": "EPLC-272H; first compound 0.01 µM", "value": 0.15}, {"measurement": "relative viability", "setting": "EPLC-272H; first compound 0.03162 µM", "value": 0.203}, {"measurement": "relative viability", "setting": "EPLC-272H; first compound 0.3162 µM", "value": 0.551}, {"measurement": "relative viability", "setting": "NCI-H522; first compound 0.01 µM", "value": 1.06}, {"measurement": "relative viability", "setting": "NCI-H522; first compound 0.03162 µM", "value": 1.08}, {"measurement": "relative viability", "setting": "NCI-H522; first compound 0.3162 µM", "value": 1.15}, {"measurement": "relative viability", "setting": "NCI-H460; first compound 0.01 µM", "value": 0.0317}, {"measurement": "relative viability", "setting": "NCI-H460; first compound 0.03162 µM", "value": 0.0332}, {"measurement": "relative viability", "setting": "NCI-H460; first compound 0.3162 µM", "value": 0.0248}, {"measurement": "relative viability", "setting": "NCI-H1915; first compound 0.01 µM", "value": 1.17}, {"measurement": "relative viability", "setting": "NCI-H1915; first compound 0.03162 µM", "value": 0.866}, {"measurement": "relative viability", "setting": "NCI-H1915; first compound 0.3162 µM", "value": 0.805}]}
